How the values were obtained:
[1] = test system: Rat Heart Rate; test: Effect on rat heart rate (telemetry) after administration of pro-drug; type: in vivo, Sprague Dawley rats; conditions: for decrease in heart rate: oral gavage, dose of 0.5 mg/kg
[2] = target: T1, adenosine A1 (Homo sapiens, UniProt P30542); conditions: from Snowdy et al. abstract and WO 98/08855; cited from earlier work
T1 sequence (P30542 1-326): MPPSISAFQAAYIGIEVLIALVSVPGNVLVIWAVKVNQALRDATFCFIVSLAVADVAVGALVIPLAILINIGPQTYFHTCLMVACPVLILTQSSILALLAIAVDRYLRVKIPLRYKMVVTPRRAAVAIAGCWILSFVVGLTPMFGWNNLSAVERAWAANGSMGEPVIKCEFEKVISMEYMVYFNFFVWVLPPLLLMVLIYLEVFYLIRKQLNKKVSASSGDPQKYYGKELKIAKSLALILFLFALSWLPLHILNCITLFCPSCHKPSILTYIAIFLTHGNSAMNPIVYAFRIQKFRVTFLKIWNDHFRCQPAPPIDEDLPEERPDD

[3] = test system: Rat Heart Rate; test: Effect on rat heart rate (telemetry) after administration of pro-drug; type: in vivo, Sprague Dawley rats; design: key to Effect on Heart Rate: +++: Heart Rate decreased by 100-150 BPM; ++: Heart Rate decreased by 50-100 BPM; +: Heart rate decreased by 50 BPM; =/−: No reproducible effect on Heart Rate.; −: No effect on Heart Rate; conditions: for Effect on Heart Rate: rat, oral gavage, 500 μGram dose, average of 3-6 rats
Procedure: Adult male and female Sprague Dawley rats were implanted with transducer/emitter modules of the Data Science Telemetry system (St. Paul, Minn.) to allow continuous monitoring of heart rate (HR). At the start of the experiment, basal HR was determine for 1 hour prior to gavage. A 500 μg dose of compounds prepared according to Examples 1-4 was administered to by oral gavage. The compounds were each prepared as stock solutions in DMSO and diluted at least 1:1000 in water for gavage. Following administration, HR was determined every five minutes. In these experiments, 3-6 rats were used to test each compounds. An average of the HR results are reported in Table 1, below and in FIGS. 1A, 2A, 3A and 4A.
Compound 1, identified above is an A1 Agonist. […] Thus, this in vivo assay is a measure of effect on heart rate following the oral administration of a pro-drug of a potent adenosine A1 agonist. The plasma concentrations of compound 1 was determined over time by cannulating the jugular of a separate specimen for subsequent blood collection. After a 24 hour recovery period, a pre-dose baseline HR as determined followed by gavage or IP injection of a compound being tested. Blood samples were taken and the concentration of compound 1 in the plasma was determined using LC/MS/MS methodologies.

SMILES | Effect on Heart Rate [3] | also measured
OC[C@H]1O[C@@H](n2cnc3c(N[C@@H]4CCOC4)ncnc32)[C@H](O)[C@@H]1O [Compound 1] |  | effect on heart rate of the sinus rhythm ([1]; rat, IP, 0.025 mg): lowers the heart rate; adenosine A1 agonist activity [2]: potent, selective adenosine A1 agonist
CC(=O)OC[C@H]1OC(n2cnc3c(N[C@@H]4CCOC4)ncnc32)[C@H](OC(C)=O)[C@@H]1OC(C)=O (stereo partly drawn) [Compound 2, (5-{6-[((3R)oxolan-3-yl)amino]purin-9-yl}(2R, 3R, 4R)-3,4-diacetyloxyoxolan-2-yl)methyl acetate] | +++ (Heart Rate decreased by 100-150 BPM) | reversibility of effect on heart rate by theophylline ([1]; rats, oral gavage 0.5 mg/kg, then theophylline 7.5 mg/kg): reversible; decrease in heart rate ([1]; rats): 100-150 beats per minute
CCCC(=O)OC[C@H]1OC(n2cnc3c(N[C@@H]4CCOC4)ncnc32)[C@H](OC(=O)CCC)[C@@H]1OC(=O)CCC (stereo partly drawn) [Compound 4, (5-{6-[((3R)oxolan-3-yl)amino]purin-9-yl}(2R, 3R, 4R)-3,4-dibutanoyloxyoxolan-2-yl)methyl butanoate] | + (Heart rate decreased by 50 BPM) | 
CC(C)C(=O)OC[C@H]1OC(n2cnc3c(N[C@@H]4CCOC4)ncnc32)[C@H](OC(=O)C(C)C)[C@@H]1OC(=O)C(C)C (stereo partly drawn) [Compound 6, (5-{6-[((3R)oxolan-3-yl)amino]purin-9-yl}(2R, 3R, 4R)-3,4-bis(2-methylpropanoyloxy)oxolan-2-yl)methyl 2-methylpropanoate] | ++ (Heart Rate decreased by 50-100 BPM) | 
CCC(=O)OC[C@H]1OC(n2cnc3c(N[C@@H]4CCOC4)ncnc32)[C@H](OC(=O)CC)[C@@H]1OC(=O)CC (stereo partly drawn) [Compound 7, (2-{6-[((3R)oxolan-3-yl)amino]purin-9-yl}(3R, 4R, 5R)-4-propanoyloxy-5-(propanoyloxymethyl)oxolan-3-yl propanoate] | + (Heart rate decreased by 50 BPM) | 
O=C(OC[C@H]1OC(n2cnc3c(N[C@@H]4CCOC4)ncnc32)[C@H](OC(=O)C2CCCC2)[C@@H]1OC(=O)C1CCCC1)C1CCCC1 (stereo partly drawn) [Compound 8, 2-{6-[((3R)oxolan-3-yl)amino]purin-9-yl}(3R, 4R, 5R)-4-cyclopentylcarbonyloxy-5-(cyclopentylcarbonyloxymethyl)oxolan-3-yl cyclopentanecarboxylate] | +++ (Heart Rate decreased by 100-150 BPM) | decrease in heart rate ([1]; rats): 100-150 beats per minute
CCOCC(=O)OC[C@H]1OC(n2cnc3c(N[C@@H]4CCOC4)ncnc32)[C@H](OC(=O)COCC)[C@@H]1OC(=O)COCC (stereo partly drawn) [Compound 9, 2-{6-[((3R)oxolan-3-yl)amino]purin-9-yl}(3R, 4R, 5R)-4-(2-ethoxyacetyloxy)-5-[(2-ethoxyacetyloxy)methyl]oxolan-3-yl 2-ethoxyacetate] | ++ (Heart Rate decreased by 50-100 BPM) | 
O=C(COCc1ccccc1)OC[C@H]1OC(n2cnc3c(N[C@@H]4CCOC4)ncnc32)[C@H](OC(=O)COCc2ccccc2)[C@@H]1OC(=O)COCc1ccccc1 (stereo partly drawn) [Compound 10, (5-{6-[((3R)oxolan-3-yl)amino]purin-9-yl}(2R, 3R, 4R)-3,4-bis[2-(phenylmethoxy)acetyloxy]oxolan-2-yl)methyl 2-(phenylmethoxy)acetate] | + (Heart rate decreased by 50 BPM) | 
O=C(Cc1ccc([N+](=O)[O-])cc1)OC[C@H]1OC(n2cnc3c(N[C@@H]4CCOC4)ncnc32)[C@H](OC(=O)Cc2ccc([N+](=O)[O-])cc2)[C@@H]1OC(=O)Cc1ccc([N+](=O)[O-])cc1 (stereo partly shown) [Compound 11] | − | 
NCC(=O)OC[C@H]1OC(n2cnc3c(N[C@@H]4CCOC4)ncnc32)[C@H](OC(=O)CN)[C@@H]1OC(=O)CN (stereo partly drawn) [Compound 12, 2-{6[((3R)oxolan-3-yl)amino]purin-9-yl}(3R, 4R, 5R)-4-(2-aminoacetyloxy)-5-[(2-aminoacetyloxy)methyl]oxolan-3-yl 2-aminoacetate] | − | 
O=C(Cc1ccccc1)OC[C@H]1OC(n2cnc3c(N[C@@H]4CCOC4)ncnc32)[C@H](OC(=O)Cc2ccccc2)[C@@H]1OC(=O)Cc1ccccc1 (stereo partly drawn) [Compound 13, (5-{6-[((3R)oxolan-3-yl)amino]purin-9-yl}(2R, 3R, 4R)-3,4-bis(2-phenylethanoyloxy)oxolan-2-yl)methyl 2-phenylethananoate] | − | 
O=C(OC[C@H]1OC(n2cnc3c(N[C@@H]4CCOC4)ncnc32)[C@H](OC(=O)c2cccnc2)[C@@H]1OC(=O)c1cccnc1)c1cccnc1 (stereo partly drawn) [Compound 14, (5-{6-[((3R)oxolan-3-yl)amino]purin-9-yl}(2R, 3R, 4R)-3,4-di(3-pyridylcarbonyloxy)oxolan-2-yl)methyl pyridine-3-carboxylate] | + (Heart rate decreased by 50 BPM) | 
CC(=O)OC[C@H]1OC(n2cnc3c(N[C@@H]4CCOC4)ncnc32)[C@H](OC(=O)C(C)C)[C@@H]1OC(=O)C(C)C (stereo partly drawn) [Compound 15, 2-{6-[((3R)oxolan-3-yl)amino]purin-9-yl}(3R, 4R, 5R)-5-(acetyloxymethyl)-4-(2-methylpropanoyloxy)oxolan-3-yl 2-methylpropanoate] | +++ (Heart Rate decreased by 100-150 BPM) | decrease in heart rate ([1]; rats): 100-150 beats per minute
CC(=O)OC[C@H]1OC(n2cnc3c(NC4CCOC4)ncnc32)[C@H](OC(=O)C2CCCC2)[C@@H]1OC(=O)C1CCCC1 (stereo partly shown) [Compound 16] | + (Heart rate decreased by 50 BPM) | 
CC(C)C(=O)O[C@@H]1[C@@H](COC(=O)C2CCCC2)OC(n2cnc3c(N[C@@H]4CCOC4)ncnc32)[C@@H]1OC(=O)C(C)C (stereo partly drawn) [Compound 17, 2-{6-[((3R)oxolan-3-yl)amino]purin-9-yl}(3R, 4R, 5R)-5-(cyclopentylcarbonyloxymethyl)-4-(2-methylpropanoyloxy)oxolan-3-yl 2-methylpropanoate] | − | 
CC(=O)O[C@@H]1[C@@H](COC(=O)C2CCCC2)OC(n2cnc3c(N[C@@H]4CCOC4)ncnc32)[C@@H]1OC(C)=O (stereo partly drawn) [Compound 18, 2-{6-[((3R)oxolan-3-yl)amino]purin-9-yl}(3R, 4R, 5R)-4-acetyloxy-5-(cyclopentylcarbonyloxymethyl)oxolan-3-yl acetate] | + (Heart rate decreased by 50 BPM) | 
CC(=O)O[C@@H]1[C@@H](COC(=O)C(C)C)OC(n2cnc3c(N[C@@H]4CCOC4)ncnc32)[C@@H]1OC(C)=O (stereo partly drawn) [Compound 19, (5-{6-[((3R)oxolan-3-yl)amino]purin-9-yl}(2R, 3R, 4R)-3,4-diacetyloxyoxolan-2-yl)methyl 2-methylpropanoate] | +++ (Heart Rate decreased by 100-150 BPM) | decrease in heart rate ([1]; rats): 100-150 beats per minute
CC(C)C(=O)OC[C@H]1OC(n2cnc3c(NC4CCOC4)ncnc32)[C@H](OC(=O)C2CCCC2)[C@@H]1OC(=O)C1CCCC1 (stereo partly shown) [Compound 20] | − | 
CC(=O)O[C@@H]1[C@H](OC(C)=O)[C@@H](COC(=O)[C@@H](N)C(C)C)O[C@H]1n1cnc2c(N[C@@H]3CCOC3)ncnc21 [Compound 21, (5-{6-[((3R)oxolan-3-yl)amino]purin-9-yl}(2R, 3R, 4R)-3,4-diacetyloxyoxolan-2-yl)methyl (2S)-2-amino-3-methylbutanoate] | + (Heart rate decreased by 50 BPM) | 
CC(C)[C@H](N)C(=O)OC[C@H]1O[C@@H](n2cnc3c(N[C@@H]4CCOC4)ncnc32)[C@H](O)[C@@H]1O [Compound 28, (5-{6-[((3R)oxolan-3-yl)amino]purin-9-yl}(2R, 3S, 4R)-3,4-dihydroxyoxolan-2-yl)methyl (2S)-2-amino-3-methylbutanoate] | − | 
CC(=O)O[C@@H]1[C@@H](CO)OC(n2cnc3c(N[C@@H]4CCOC4)ncnc32)[C@@H]1OC(C)=O (stereo partly drawn) [Compound 31, 2-{6-[((3R)oxolan-3-yl)amino]purin-9-yl}(3R, 4R, 5R)-4-acetyloxy-5-(hydroxymethyl)oxolan-3-yl acetate] |  | activity upon oral dosing in rats ([3]; rats, oral dosing, compared with the triple pro-drugs (Table 1)): lower activity
CC(=O)OC[C@H]1OC(n2cnc3c(N[C@@H]4CCOC4)ncnc32)[C@H](O)[C@@H]1O (stereo partly drawn) [Compound 34, (5-{6-[((3R)oxolan-3-yl)amino]purin-9-yl}(3S, 2R, 4R)-3,4-dihydroxyoxolan-2-yl)methyl acetate] | − | 

Source: US6576619B2 (CV Therapeutics, Inc., priority 1999, dated 2003)
